Results reported in patent US7820201B2, “System for manufacturing controlled release dosage forms, such as zero-order release profile dosage form manufactured by three-dimensional printing” (Massachusetts Institute of Technology, priority 2001, dated 2010).
Read-outs that look alike come from different tables or passages of the source.

Settings: for ko, best fit rate constant for equation 9: Co 280 mgAPI/cc, 3-D release, simulated intestinal fluid pH 7.4, 37° C.
Text: The concentration C0 refers to the amount of API per unit volume in the dosage form after compression.
Each of the API release curves in FIG. 16 was fit to Equation 9 by performing a least-squares fit between the empirical data and model. This was done to determine the relevance of the model, and to determine rate constants for the powder/API systems for later use. […] For this purpose, the rate constants in the two different directions were assumed to be equal.
The erosion rate constants are given in units of mg/hr cm^2 where mg is mg of API released into the dissolution fluid. R^2 is a statistical measure of correlation, with a value of 1 indicating perfect correlation.

O=C(O)Cc1ccccc1Nc1c(Cl)cccc1Cl [diclofenac sodium]
linear erosion rate constant delta r/delta t (70% Lactose: 30% HPMC conventional tablets): 0.341 mm/hr
ko, best fit rate constant for equation 9 (Lactose:HPMC 60:40, 100 mg API): 6.092 mg/hr · cm^2
ko, best fit rate constant for equation 9 (Lactose:HPMC 70:30, 100 mg API): 9.540 mg/hr · cm^2
ko, best fit rate constant for equation 9 (Lactose:HPMC 80:20, 100 mg API): 22.238 mg/hr · cm^2
